From patent US20240140950A1, “NITROGEN-CONTAINING POLYCYCLIC AROMATIC COMPOUND, and PREPARATION METHOD AND APPLICATION THEREOF” (priority 2021, published 2024)
Read-outs that look alike come from different tables or passages of the source.

Columns and labels:
human melanoma A375 = test: CCK-8 cell survival assay, A375; assay type: cell-based; conditions: CCK-8, 48 h, read-out: IC50 value of the inhibition on A375
Protocol: (§1) a. […] Reagents • CCK8 reagent kit, purchased from TargetMol China; Annexin V-FITC/PI double staining cell apoptosis detection kit, purchased from Seven Biotech Company. c. Instruments • Multi-function microplate reader FLUOstar Omega, purchased from BMG LABTECH, Germany; • Flow cytometer, purchased from BD Company, United States. d. Experimental Method
(§2) The cells in logarithmic phase with good condition are taken and digested with trypsin, and the prepared culture medium is added to prepare a cell suspension, the cell density being adjusted to 5×10^4 cells/mL. The digested cells are inoculated into a 96-well plate, in which 100 μL of cell suspension is added to each well, and incubated overnight in a cell incubator at 37° C. with 5% CO2. After the cells grow adhered to the wall, the blank control group and the compound groups to be tested with different concentration gradients are set up respectively. […] The optical density value (OD) is measured by using a multifunctional enzyme-linked immunosorbent assay instrument, the wavelength setting to 450 nm. The experiment is repeated for three times, the cell survival rates of different drug concentrations in each group are calculated and counted according to a formula: cell survival rate=(experimental group−blank control group/control group)×100%, and the results are calculated with GraphPad Prism software.

[1] = tested on: human triple negative breast cancer MDA-MB-231; test: CCK-8 cell survival assay, MDA-MB-231; assay type: cell-based; conditions: CCK-8, 48 h, read-out: IC50 value of the inhibition on MDA-MB-231
Protocol: as §1, §2

SP2/0 Mouse myeloma = test: Flow cytometric detection of cell apoptosis (Annexin V-FITC/PI), SP2/0; assay type: cell-based; conditions: for Apoptosis in early stage / Apoptosis in late stage: 48 h
Protocol: (§3) The cells that are in logarithmic phase and have good condition are taken, digested with trypsin, the prepared culture medium is added to prepare a cell suspension, and the cell density is adjusted to 5×10^4 cells/mL. The digested cells are inoculated in 6-well plate, in which 2 mL cell suspension is added to each well, and incubated overnight in a cell incubator at 37° C. with 5% CO2. After the cells are adhered to the wall, a blank control group and the group of experimental drug to be tested with different concentration gradients are set respectively. 2 mL drug is added to each well for further cultivation for 48 h, and EDTA-free trypsin is used for cell digestion and the digested cells are collected. For the apoptosis detection, the collected cells are required to be adjusted to the cell density of 1×10^6 cells/mL, put into a 5 mL centrifuge tube and centrifuged at 1000 rpm for 5 min, and then washed with PBS for three times. 100 μL Binding Buffer is added to resuspend the cells, and except for the single-stained control and blank control cells, 5 μL FITC and 5 μL PI are added to each tube, mixed gently, and incubated at room temperature in the dark for 15 min. 400 μL Binding Buffer is added into each well before testing on the machine, and mixed and tested on the machine. • Blank control: drug-induced apoptotic cells—without adding a fluorescent reagent (the voltage of scattered light is adjusted to determine the FSC SSC of the population). • Negative control: normal cells (without drug treatment)—added with all the fluorescent staining reagents of the experiment (at the lower left corner, the voltage of the two fluorescent channels is determined). • Single-stained control: one tube each for FITC and PI, positive control for compensation adjustment: drug-induced apoptotic cells or heat-induced apoptotic cells are added with all fluorescent reagents of the experiment (confirming that there is no problem with reagents, instruments and operations).

[2] = tested on: MDA-MB-231 Human triple negative breast cancer; test: Flow cytometric detection of cell apoptosis (Annexin V-FITC/PI), MDA-MB-231; assay type: cell-based; conditions: 48 h
Protocol: as §3

A375 Human melanoma = test: Flow cytometric detection of cell apoptosis (Annexin V-FITC/PI), A375; assay type: cell-based; conditions: 48 h
Protocol: as §3

[3] = tested on: A549 Human lung cancer cell; test: Flow cytometric detection of cell apoptosis (Annexin V-FITC/PI), A549; assay type: cell-based; conditions: 48 h
Protocol: as §3

mouse myeloma SP2/0 = test: CCK-8 cell survival assay, SP2/0; assay type: cell-based; conditions: CCK-8, 48 h, read-out: IC50 value of the inhibition on SP2/0
Protocol: as §1, §2

KM mice = test: Mouse toxicity test (acute, intraperitoneal); assay type: in vivo
Source text: 12 KM mice with body weight 18 g to 22 g and age of 4 to 6 weeks are taken and fed adaptively for 7 days. All mice may eat freely and be provided with sufficient fresh drinking water. The feeding environment for mice meets the standard of SPF laboratory animal level environmental facility.
The behavioral changes after administration and death within 14 days of the animals are observed.

[4] = tested on: human lung cancer cell A549; test: CCK-8 cell survival assay, A549; assay type: cell-based; conditions: CCK-8, 48 h, read-out: IC50 value of the inhibition on A549
Protocol: as §1, §2

human normal cell 293T = test: MTT cytotoxicity assay, human normal cell 293T; assay type: cell-based; conditions: 48 h, read-out: IC50 value of the inhibition on human normal cell 293T
Protocol: Two cancer cell lines HELA and MCF-7 in the logarithmic phase and the human normal cell line 293T are taken and the cells thereof are counted with a cell counting plate, and then the concentration of the cell suspension is adjusted to 10^5 cells/mL. The cells are inoculated into a 96-well plate with 100 μL of cell suspension for each well. After the cell suspension is evenly distributed, and the plate is placed into a CO2 incubator for incubation. The drug to be tested is added after the cells grow uniformly and have spread on all the bottom of the culture dish. DMEM culture solution is used as a negative control group (the drug to be tested is completely dissolved in the culture solution without dissolving it in DMSO), and cisplatin is used as a positive control group. For each drug to be tested and control groups, 100 μL of the drug to be tested is added to each well; and four parallel replicates are set for each concentration. After 48 h cultivation, 10 μL MTT is added for another 4 h cultivation, and the supernatant is discarded. 100 μL analytically pure dimethyl sulfoxide is added, and shaken evenly on a shaking table. After the solution is completely uniform, its absorbance is measured at a wavelength of 490 nm with a microplate reader. The experiment is repeated twice.

cancer cell HELA = test: MTT cell inhibition assay, HELA; assay type: cell-based; conditions: 48 h
Protocol: (§4) Two cancer cell lines HELA and MCF-7 in the logarithmic phase and the human normal cell line 293T are taken and the cells thereof are counted with a cell counting plate, and then the concentration of the cell suspension is adjusted to 10^5 cells/mL. The cells are inoculated into a 96-well plate with 100 μL of cell suspension for each well. After the cell suspension is evenly distributed, and the plate is placed into a CO2 incubator for incubation. […] For each drug to be tested and control groups, 100 μL of the drug to be tested is added to each well; and four parallel replicates are set for each concentration. After 48 h cultivation, 10 μL MTT is added for another 4 h cultivation, and the supernatant is discarded. 100 μL analytically pure dimethyl sulfoxide is added, and shaken evenly on a shaking table. After the solution is completely uniform, its absorbance is measured at a wavelength of 490 nm with a microplate reader. The experiment is repeated twice.

cancer cell MCF-7 = test: MTT cell inhibition assay, MCF-7; assay type: cell-based
Protocol: as §4

[5] = KM mice, 40 mg/kg intraperitoneal

COc1ccc2c(c1)C13CCNC1(C)C1(C)c4[nH]c5ccc(OC)cc5c4CCN1C3N2 (stereo not shown) [Compound 14]
IC50 (human melanoma A375; Homo sapiens, A-375): 17.1 ± 1.45 µM | IC50 ([1]; Homo sapiens, MDA-MB-231): 26 ± 1.43 µM | Apoptosis in early stage (SP2/0 Mouse myeloma; SP2/0, 10 μM): 13.15 ± 0.57% | Apoptosis in late stage (SP2/0 Mouse myeloma; SP2/0, 10 μM): 13.44 ± 1.50% | Apoptosis in early stage (SP2/0 Mouse myeloma; SP2/0, 20 μM): 35.97 ± 3.37% | Apoptosis in late stage (SP2/0 Mouse myeloma; SP2/0, 20 μM): 26.65 ± 1.64% | total apoptosis rate at early and late stages (SP2/0 Mouse myeloma; SP2/0, 30 μM): 97% | Apoptosis in early stage (SP2/0 Mouse myeloma; SP2/0, 30 μM): 58.56 ± 1.26% | Apoptosis in late stage (SP2/0 Mouse myeloma; SP2/0, 30 μM): 39.36 ± 0.87% | Apoptosis in early stage ([2]; MDA-MB-231, 15 μM): 9.21 ± 1.14% | Apoptosis in late stage ([2]; MDA-MB-231, 15 μM): 13.41 ± 1.24% | Apoptosis in early stage ([2]; MDA-MB-231, 30 μM): 17.70 ± 3.31% | Apoptosis in late stage ([2]; MDA-MB-231, 30 μM): 16.33 ± 0.72% | Apoptosis in early stage ([2]; MDA-MB-231, 45 μM): 20.83 ± 2.79% | Apoptosis in late stage ([2]; MDA-MB-231, 45 μM): 23.66 ± 1.70% | Apoptosis in early stage (A375 Human melanoma; A375, 10 μM): 27.41 ± 1.87% | Apoptosis in late stage (A375 Human melanoma; A375, 10 μM): 10.03 ± 1.87% | Apoptosis in early stage (A375 Human melanoma; A375, 20 μM): 34.09 ± 3.2% | Apoptosis in late stage (A375 Human melanoma; A375, 20 μM): 13.17 ± 2.30% | Apoptosis in early stage ([3]; A549, 10 μM): 4.12 ± 1.73% | Apoptosis in late stage ([3]; A549, 10 μM): 9.70 ± 1.18% | Apoptosis in early stage ([3]; A549, 30 μM): 16.23 ± 0.90% | Apoptosis in late stage ([3]; A549, 30 μM): 16.08 ± 0.62% | Apoptosis in early stage ([3]; A549, 60 μM): 41.28 ± 5.36% | Apoptosis in late stage ([3]; A549, 60 μM): 27.32 ± 1.22% | IC50 (mouse myeloma SP2/0; Mus musculus): 15.1 ± 2.91 µM | behavioral changes after administration (KM mice; KM mice, 20 mg/kg intraperitoneal): no abnormalities | behavior and spirit of the animals (KM mice; [5]): normal | death within 14 days (KM mice; [5]): no death occurs | death within 14 days (KM mice; KM mice, 60 mg/kg intraperitoneal): one animal dies on the sixth day | death within 14 days (KM mice; KM mice, 80 mg/kg intraperitoneal): two animals die on the second day | lethal dose (KM mice; KM mice, intraperitoneal, single injection, 14 days observation): about 60 mg/kg | body weight / weight gain (KM mice; mouse, in vivo, ip, 20 mg/kg): not significantly different | weight gain compared with the negative control group (KM mice; mouse, in vivo, ip, 40 mg/kg): slower | IC50 ([4]; Homo sapiens, A549): 30.8 ± 1.72 µM

Cc1ccc2c(c1)C13CCNC1(C)C1(C)c4[nH]c5ccc(C)cc5c4CCN1C3N2 (stereo not shown) [Compound 15]
IC50 (human normal cell 293T; Homo sapiens, HEK-293T): 134 µM | IC50 (cancer cell HELA; Homo sapiens, HeLa): 23.6 µM | IC50 (cancer cell MCF-7; Homo sapiens, MCF7, 48 h): 29.8 µM

N.N.[Cl][Pt][Cl] [Cisplatin, cisplatin, reference compound]
IC50 (human melanoma A375): 16.4 ± 0.36 µM | IC50 [1]: 23.4 ± 1.75 µM | IC50 (human normal cell 293T): 17.3 µM | IC50 (cancer cell HELA): 13.2 µM | IC50 (cancer cell MCF-7; 48 h): 14.2 µM | IC50 (mouse myeloma SP2/0): 17.4 ± 1.24 µM | IC50 [4]: 35.8 ± 1.89 µM

Cc1ccc2c(c1)C13CCNC1C1(C)c4[nH]c5ccc(C)cc5c4CCN1C3N2 (stereo not shown) [Compound 20]
IC50 (cancer cell HELA; Homo sapiens, HeLa): 40.1 µM
